These results are taken from US20040138104A1, “Peptides” (priority 2003, published 2004).

Like-named read-outs stand apart in the source and are kept apart here.

One assay has as its target T1, PTB1B (Homo sapiens, UniProt P18031).
T1 sequence (P18031 1-435): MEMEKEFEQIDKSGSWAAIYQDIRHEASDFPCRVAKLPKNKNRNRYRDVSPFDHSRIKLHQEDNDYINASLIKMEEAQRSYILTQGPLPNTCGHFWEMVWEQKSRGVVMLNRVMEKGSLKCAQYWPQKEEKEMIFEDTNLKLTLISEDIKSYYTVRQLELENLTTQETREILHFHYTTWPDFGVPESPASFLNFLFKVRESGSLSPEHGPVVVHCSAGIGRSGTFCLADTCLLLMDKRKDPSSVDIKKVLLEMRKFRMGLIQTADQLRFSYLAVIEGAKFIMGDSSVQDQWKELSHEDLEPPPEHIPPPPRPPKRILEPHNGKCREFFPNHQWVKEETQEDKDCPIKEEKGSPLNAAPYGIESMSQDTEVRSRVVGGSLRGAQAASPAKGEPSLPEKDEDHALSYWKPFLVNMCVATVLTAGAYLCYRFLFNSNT
The class given is biochemical. The conditions noted are these: read-out: IC50 Values in μM Against Various Enzymes: PTB1B.

The target in another assay is YopH (Yersinia pestis, UniProt O68720). In words: biochemical.
Setting [1] is: read-out: IC50 Values in μM Against Various Enzymes: YopH.

A word on the IC50: it is the concentration that inhibits the measured activity by half.

Sequence of YopH (O68720 1-468): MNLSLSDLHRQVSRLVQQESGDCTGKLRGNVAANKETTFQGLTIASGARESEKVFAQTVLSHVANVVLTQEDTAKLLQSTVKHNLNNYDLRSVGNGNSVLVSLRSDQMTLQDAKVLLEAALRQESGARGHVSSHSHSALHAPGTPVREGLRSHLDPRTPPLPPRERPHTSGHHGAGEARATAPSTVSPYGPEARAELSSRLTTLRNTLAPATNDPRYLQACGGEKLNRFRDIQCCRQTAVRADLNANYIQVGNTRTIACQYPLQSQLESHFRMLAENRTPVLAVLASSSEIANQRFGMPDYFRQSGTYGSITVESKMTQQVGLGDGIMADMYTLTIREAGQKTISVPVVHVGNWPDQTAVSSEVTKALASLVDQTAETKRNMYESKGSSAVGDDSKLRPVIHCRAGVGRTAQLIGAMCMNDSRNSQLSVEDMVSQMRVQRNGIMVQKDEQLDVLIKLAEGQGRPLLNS

In the case of `CC(C)C[C@H](NC(=O)[C@H](Cc1ccc(OCC(=O)O)cc1)NC(=O)[C@H](CCC(=O)OCc1ccccc1)NC(=O)OCC1c2ccccc2-c2ccccc21)C(N)=O` [TB 26], the 50% inhibitory concentration (IC50) on PTB1B amounted to 4.6 ± 2 µM; at YopH (setting [1]), 2.8 ± 1.1 µM.

In the case of `CC(C)C[C@H](NC(=O)[C@H](Cc1ccc(OCC(=O)O)c(OCC(=O)O)c1)NC(=O)[C@H](CCC(=O)OCc1ccccc1)NC(=O)OCC1c2ccccc2-c2ccccc21)C(N)=O` [TB 29], the values for the half-maximal inhibitory concentration (IC50) on PTB1B and at YopH (setting [1]) were 19.4 ± 3.6 µM and 19.4 ± 3.3 µM, respectively.

In turn, `CC(C)C[C@H](NC(=O)[C@H](Cc1ccc(C(F)(C(=O)O)C(=O)O)cc1)NC(=O)[C@H](CCC(=O)OCc1ccccc1)NC(=O)OCC1c2ccccc2-c2ccccc21)C(N)=O` [TB 34] gave an IC50 on YopH of 3 ± 0.7 µM.

Take `CC(C)C[C@H](NC(=O)[C@H](Cc1ccc(OCC(=O)O)cc1)NC(=O)[C@H](CCC(=O)OCc1ccccc1)NC(=O)OCc1ccccc1)C(N)=O` [TB 39]: the figures for the IC50 on PTB1B and on YopH (setting [1]) were 72 ± 14 µM and 119 ± 14 µM, respectively.

The compound `CC(C)C[C@H](NC(=O)[C@H](Cc1ccc(OCC(=O)O)cc1)NC(=O)[C@H](CCC(=O)OCc1ccccc1)NC(=O)OCCc1ccccc1)C(N)=O` [TB 40] displayed a 50% inhibitory concentration (IC50) at YopH of 80 ± 8.5 µM.
